The record followed here is ChEMBL document CHEMBL1926659, “CK2α and CK2α' subunits differ in their sensitivity to 4,5,6,7-tetrabromo- and 4,5,6,7-tetraiodo-1H-benzimidazole derivatives” (Eur J Med Chem, 2012).

The target of experiment [1] is T1, Casein kinase II subunit alpha' (Homo sapiens, UniProt P19784). As to the kind of experiment: Inhibition of human CK2 alpha' catalytic subunit expressed in Escherichia coli […] (DE3) assessed as [33P]gamma-ATP incorporation into RRRADDSDDDDD substrate after 15 mins by scintillation counting.
Experiment [2] has as its target T1, Casein kinase II subunit alpha'. As to the kind of experiment: Inhibition of human CK2 alpha' catalytic subunit expressed in Escherichia coli BL21 (DE3) assessed as [33P]gamma-ATP incorporation into P2B substrate after 15 mins by scintillation counting.
Experiment [3] concerns the target T2, Casein kinase II subunit alpha (Homo sapiens, UniProt P68400). As to the kind of experiment: Inhibition of human CK2 alpha catalytic subunit expressed in Escherichia coli BL21 (DE3) assessed as [32P]gamma-ATP incorporation into P2B substrate after 15 mins by scintillation counting.
Experiment [4] concerns the target T2, Casein kinase II subunit alpha. Put plainly: Inhibition of human CK2 alpha catalytic subunit expressed in Escherichia coli BL21 (DE3) assessed as [32P]gamma-ATP incorporation into RRRADDSDDDDD substrate after 15 mins by scintillation counting.

T1 sequence (P19784 whole entry): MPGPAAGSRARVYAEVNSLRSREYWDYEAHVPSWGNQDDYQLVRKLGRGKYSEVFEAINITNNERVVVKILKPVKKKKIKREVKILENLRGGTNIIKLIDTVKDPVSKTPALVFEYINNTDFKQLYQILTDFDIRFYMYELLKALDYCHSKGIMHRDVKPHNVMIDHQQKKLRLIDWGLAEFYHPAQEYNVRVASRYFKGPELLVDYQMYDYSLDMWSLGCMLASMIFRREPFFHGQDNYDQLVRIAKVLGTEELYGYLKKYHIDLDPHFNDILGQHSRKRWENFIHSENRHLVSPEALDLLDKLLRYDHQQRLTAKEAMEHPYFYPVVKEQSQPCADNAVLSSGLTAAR
T2 sequence (P68400 whole entry): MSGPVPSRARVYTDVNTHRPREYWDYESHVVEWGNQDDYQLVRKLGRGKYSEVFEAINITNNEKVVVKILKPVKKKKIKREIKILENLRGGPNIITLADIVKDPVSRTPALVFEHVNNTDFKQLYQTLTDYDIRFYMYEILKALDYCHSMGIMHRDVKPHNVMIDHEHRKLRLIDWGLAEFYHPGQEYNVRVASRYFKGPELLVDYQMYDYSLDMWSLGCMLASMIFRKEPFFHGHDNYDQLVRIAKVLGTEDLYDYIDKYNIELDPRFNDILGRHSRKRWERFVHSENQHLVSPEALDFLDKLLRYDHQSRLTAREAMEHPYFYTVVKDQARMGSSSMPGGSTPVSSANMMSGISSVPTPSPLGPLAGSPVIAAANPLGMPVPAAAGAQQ

The term Ki denotes the dissociation constant of the complex between target and ligand, obtained from inhibition or displacement. In the case of `Brc1c(Br)c(Br)c2[nH]cnc2c1Br`, the Ki in experiment [1] was 0.343 µM; in experiment [2], 0.27 µM.
In the case of `O=C(O)Cn1cnc2c(I)c(I)c(I)c(I)c21`, the Ki turned out to be 0.324 µM in experiment [1], 0.378 µM in experiment [3], 0.261 µM in experiment [4] and 0.062 µM in experiment [2].
With `CN(C)c1nc2c(Br)c(Br)c(Br)c(Br)c2n1CC(=O)O`, the Ki in experiment [1] is 0.021 µM; in experiment [3] it was 0.088 µM; in experiment [4], 0.083 µM; in experiment [2] it was 0.066 µM.
On to `CN(C)c1nc2c(Br)c(Br)c(Br)c(Br)c2n1C`, for which the Ki is 0.035 µM in experiment [1], 0.212 µM in experiment [3], 0.154 µM in experiment [4] and 0.109 µM in experiment [2].
`O=C(O)CCCSc1nc2c(Br)c(Br)c(Br)c(Br)c2[nH]1`: the Ki in experiment [1] is 0.044 µM; in experiment [3] it was 0.077 µM; in experiment [4] it was 0.21 µM; in experiment [2] it was 0.088 µM.
Take `CN(C)c1nc2c(Br)c(Br)c(Br)c(Br)c2n1CCCC(=O)O`: the Ki in experiment [1] came out at 0.093 µM; in experiment [3], 0.86 µM; in experiment [4], 0.456 µM; in experiment [2], 0.139 µM.
For the compound `O=C(O)CSc1nc2c(I)c(I)c(I)c(I)c2[nH]1`, the Ki in experiment [1] was determined as 0.106 µM; in experiment [3] it was 0.11 µM; in experiment [4], 0.08 µM; in experiment [2], 0.078 µM.
For the compound `Cn1c(SCC(=O)O)nc2c(Br)c(Br)c(Br)c(Br)c21`, the Ki was 0.024 µM in experiment [1], 0.143 µM in experiment [3], 0.013 µM in experiment [4] and 0.2 µM in experiment [2].
Take `O=C(O)CCSc1nc2c(Br)c(Br)c(Br)c(Br)c2[nH]1`: the Ki in experiment [1] is 0.031 µM; in experiment [3] it was 0.116 µM; in experiment [4], 0.172 µM; in experiment [2], 0.035 µM.
The corresponding values for `Cn1c(SCCCC(=O)O)nc2c(Br)c(Br)c(Br)c(Br)c21` are 0.768 µM, 0.088 µM, 0.501 µM and 0.083 µM.
Turning to `Cn1c(SCCC(=O)O)nc2c(Br)c(Br)c(Br)c(Br)c21`, the Ki worked out at 0.055 µM in experiment [1], 0.112 µM in experiment [3], 0.137 µM in experiment [4] and 0.1 µM in experiment [2].
The corresponding values for `Ic1c(I)c(I)c2[nH]cnc2c1I` are 0.021 µM, 0.266 µM, 0.043 µM and 0.071 µM.
On to `O=C(O)CSc1nc2c(Br)c(Br)c(Br)c(Br)c2[nH]1`, for which the Ki is 0.049 µM in experiment [1], 0.106 µM in experiment [3], 0.17 µM in experiment [4] and 0.037 µM in experiment [2].
The corresponding values for `O=C(O)CCCn1cnc2c(Br)c(Br)c(Br)c(Br)c21` are 0.195 µM, 0.472 µM, 0.368 µM and 0.188 µM.
For `O=C(O)Cn1cnc2c(Br)c(Br)c(Br)c(Br)c21`, the Ki in experiment [1] stood at 0.342 µM; in experiment [3], 0.798 µM; in experiment [4], 0.67 µM; in experiment [2], 0.609 µM.
